Several values for one entry are separate records, joined by “and”; a condition that tells them apart may be missing. Identical values can stand only once. Like-named read-outs stand apart in the source and are kept apart here. Ends that are not written are not given here.
What was measured:
[1] = biological target: T1, tartrate-resistant acid phosphatase (TRAP) (Homo sapiens, UniProt P13686); assay: Surface plasmon resonance (SPR) affinity of peptides and peptide-functionalized polymers for TRAP, binding-curve fit
T1 sequence (P13686 22-325): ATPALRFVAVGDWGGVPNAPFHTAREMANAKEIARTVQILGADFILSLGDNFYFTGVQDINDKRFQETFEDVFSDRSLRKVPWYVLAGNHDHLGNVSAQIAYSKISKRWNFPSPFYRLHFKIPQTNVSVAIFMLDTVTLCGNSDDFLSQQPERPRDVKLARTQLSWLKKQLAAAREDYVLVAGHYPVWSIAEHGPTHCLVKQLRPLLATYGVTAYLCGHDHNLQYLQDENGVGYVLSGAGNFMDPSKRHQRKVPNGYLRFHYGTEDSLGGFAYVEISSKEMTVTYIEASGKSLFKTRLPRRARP
Experimental: (§1) Surface plasmon resonance (SPR) is used to assess the affinity of peptides for TRAP. Series S Sensor CM5 Chips are functionalized with TRAP via 1-ethyl-3-(3-dimethylaminopropyl) carbodiimide (EDC)/N-hydroxysuccinimide (NHS) chemistry. Briefly, the chips, which have a carboxymethylated dextran functionality, are activated through the introduction of NHS and EDC. After activation, TRAP protein, at 30 μg/mL in sodium acetate (pH=5), is introduced to the surface. Ethanolamine-hydrochloric acid is used to quench unreacted carboxysuccinimide groups. Peptides are dissolved in running buffer of PBS with 0.005% Tween20. Peptides are analyzed in duplicate at different concentrations. Surface regeneration is achieved using a combination of 1 and 2 M NaCl and 1-50 mM NaOH solutions as necessary.
In SPR, the binding of any molecules to the surface of the sensor chips results in a change in the angle of incident light reflection, allowing highly-sensitive detection of miniscule amounts of ligand binding to the surface. Target affinity can be determined by introducing increasing concentrations of the ligand to the surface. Higher concentrations of samples elicited larger responses. The binding response was measured and plotted against concentration (FIG. 4), allowing for a fitting of the data by a binding curve. From this fitting, values such as KD can be determined. Through this technique, the affinity of TBP and SCP was analyzed. […] While not wishing to be bound by any particular theory, a possible, but improbable, cause for difference in affinity is the inclusion of the glycine residue on the carboxylic end of the synthesized peptide used herein. Despite this addition, the order of the original sequence is preserved, and glycine is a small, uncharged and nonpolar amino acid. […] In prior studies using phage display, five copies of the peptide are present and exposed (Sheu et al., 2002, Journal of Bone and Mineral Research, 17(5):915-922). Therefore, part of the higher affinity seen in the phage display experiments could be due to the multivalent nature of the peptide on the phage.
Quantitative analyses of peptide and polymer affinities were performed using SPR. […] The binding of any molecules to the surface of the sensor chips results in a change in the angle of incident light reflection, allowing highly-sensitive detection of miniscule amounts of ligand binding to the surface. Target affinity can be determined by introduction of increasing concentrations of the molecule to the surface (FIG. 38A and FIG. 38B). Typically higher concentrations of samples elicited larger responses, with a larger response from polymers at lower concentrations in comparison to the TBP alone. […] Furthermore, polymer samples required the application of regeneration buffers, ranging from a mild buffer of 500 mM NaCl to a harsher buffer of 5 mM NaOH, to return the signal to previous levels. The binding response is measured and plotted against concentration, allowing for a fitting of the data by a binding curve. From this fitting, values such as the dissociation constant (KD) value can be determined. Through this technique, the affinity of peptides and peptide-functionalized polymers were analyzed. […] However, inclusion of peptide functionalities results in substantial increases in TRAP affinities (KD˜7.1-21 μM). […] While not wishing to be bound by any particular theory, a possible, but improbable, cause for difference in affinity is the inclusion of the glycine residue on the carboxylic end of the synthesized peptide used herein. Despite this addition the order of the original sequence is preserved and glycine is a small, uncharged and nonpolar amino acid. […] In prior studies using phage display, five copies of the peptide are present and exposed (Sheu et al., 2002, Journal of Bone and Mineral Research, 17(5): 915-922). Therefore part of the higher affinity seen in the phage display experiments could be due to the multivalent nature of the peptide on the phage. […]

[2] = Bone resorption pit binding of fluorescently labeled peptides, confocal imaging; parameters: species or system human; conditions: fluorescently labeled peptide, overnight incubation
Experimental: Equal concentrations of fluorescently labeled TBP and SCP are prepared in 1× phosphate-buffered saline (PBS). Bone wafers are cut from cortical bone obtained from the femur of a human donor cadaver and incubated in peptide solutions overnight, washed twice with 1×PBS, and then visualized via confocal imaging. Stacked sections are compressed into 2D images to allow for qualitative analysis as in FIG. 3A through FIG. 3D. […] Qualitatively, no binding of SCP is detected (FIG. 3D).

TRAP protein = biological target: T2, TRAP protein (Homo sapiens, UniProt P13686); assay: SPR affinity of peptide-functionalized polymers for TRAP, initial rate analysis of sensorgrams; type: binding; conditions: for SPR binding response to TRAP: sensorgrams
T2 sequence (P13686 22-325): T1 sequence (P13686 22-325)
Experimental: as §1, with “peptide-functionalized polymers” for “peptides”, “Polymers” for “Peptides”, “1-10” for “a combination of 1 and 2 M NaCl and 1-50”, “necessary. […] Sensorgram data (FIG. 22) are exported from the SPR evaluation software after smoothing data of injection events and analyzed. Response units (RU) are converted into concentrations for rate analysis using the equation: S[M]=RU/60000 MW” for “necessary.”
Where S is the concentration of polymer bound to the TRAP-functionalized surface and MW is the molecular weight of the polymer. The binding rates of polymers to TRAP are determined in the initial linear portion of association, within two seconds of the start of injection. The reciprocals of binding rates are plotted against the reciprocals of polymer concentrations to obtain a linear relationship, generalized in the equation: Vi^−1=KDSi^−1Vm^−1Vm^−1
Where Vi is the binding rate for each i concentration of polymer and Vm is the maximum binding rate of polymer to TRAP. This relationship identifies the KD for each polymer (Table 4). Only TBP-functionalized polymers show affinity for TRAP (FIG. 22), as control (SCP-functionalized and PEG) polymer show no positive binding response (FIG. 23A through FIG. 23C).

[3] = tested on: Mouse osteoblasts (MC3T3E1); assay: Cytocompatibility of peptide-functionalized polymers, Picogreen DNA assay; type: cell-based; conditions: 0.1 mM and 10 mM, 7 days, normalized to media alone
Experimental: Mouse osteoblasts (MC3T3E1) were maintained in alpha minimum essential media (α-MEM, Gibco), containing 10% fetal bovine serum (FBS, Invitrogen) and 1% penicillin-streptomycin-fungizone at 37° C. and 5% CO2. Cells were utilized at passage 5. To assess the cytocompatibility of peptide-functionalized polymers, cells were seeded in a 48 well plates at 10,000 cells/well and allowed to adhere overnight. Cells were treated with media alone or with peptide or peptide-functionalized polymers (0.1 mM and 10 mM) for 7 days, with media exchanges every two days. These concentrations employed are far higher than expected to be necessary for future uses and allowed for isolation of the maximum tolerated doses in vitro. After seven days of exposure, cells were washed, lysed by sonication, and analyzed for DNA concentration using the Picogreen Assay (Invitrogen). Results were normalized to cells treated with media alone.

[4] = Vougogiannopoulou et al., 2008; cited from earlier work
[5] = tested on: β-catenin and ALP in osteoblasts; assay: BIO treatment of osteoblasts, β-catenin levels and ALP production; type: cell-based; conditions: 24 hours treatment
Experimental: Data represents mean±standard deviation for 3 trials. *p<0.05 versus control, #p<0.05 versus 2 μM BIO (n=5).
Several BIO-releasing polymers that are the correct molecular weight to enhance circulation time and avoid renal clearance have been successfully synthesized. […] Finally, released BIO biological activity is confirmed versus the free, unconjugated molecule and rescue of β-catenin signaling in osteoblasts is verified.

β-catenin in MSCs = assay: β-catenin agonism and cellular uptake of NPs in MSCs; type: cell-based; conditions: over 5 days of treatment
Experimental: To investigate the intracellular accessibility of this NPs, polymers were labeled with fluorescein isothiocyanate (FITC) fluorophore and incubated with MSCs (FIG. 44B). […] To validate β-catenin agonism of NP delivered GSK3β inhibitor XXVII, cells were treated with free GSK3β inhibitor XXVII and NP delivered GSK3β inhibitor XXVII.

[6] = Bone targeting of fluorescently labeled polymer therapeutics on osteoclast-resorbed bone wafers; type: binding, bovine
Experimental: Bovine cortical bone is cut into 5-mm square, 0.5-mm thick wafers using a low speed saw with a diamond wafering blade. Bone wafers are boiled in ddH2O for 15 minutes, placed in 96-well plates, sterilized in 70% ethanol for half an hour on each side, washed thrice in 1×PBS, and incubated in alpha minimum essential medium (α-MEM) for at least 1 hour at 37° C. before cell seeding.
Monocytes are freshly isolated from the spleens of mice, filtered twice with a 40 μm cell strainer, collected via centrifugation (5 minutes, 1000 rpm), and re-suspended in sterile filtered mouse red blood cell lysis buffer for 10 minutes at room temperature. After neutralizing lysis buffer with 1×PBS, monocytes are collected via centrifugation and washed in α-MEM containing 10% fetal bovine serum, 1% penicillin-streptomycin-fungizone, 1% GlutaMAX, and 1% non-essential amino acids before re-suspension in medium containing 100 ng mL^−1 M-CSF conditioned medium (Takeshita et al., 2000, J Bone Miner Res 15:1477). Monocytes are seeded in 96-well plates on the tissue culture surface or on prepared bovine cortical bone wafers at 2×10^5 cells well^−1 (1×10^6 cells mL^−1). After 3 days of incubation at 37° C. and 5% CO2, medium is supplemented with 1 ng mL^−1 receptor activator of nuclear factor κB ligand (RANKL) to induce osteoclast differentiation. […]

[7] = tested on: areas with cathepsin K and osteoclast activity at calvarial defect; assay: Co-localization of polymers to actively remodeling bone, two-photon microscopy of cranial window defect; type: in vivo, mice; conditions: 5 mg kg^−1 intraperitoneal, imaged thirty minutes later
Experimental: A thinned-skull cranial window is produced in mice as previously described (Yang et al., 2010, Nat Protoc 5:201). Briefly, a 500-μm diameter defect is made in the skull of mice and covered with a glass coverslip. The night before imaging, mice are injected intraperitoneal with 100 μL reconstituted cathepsin K probe in 1×PBS, prepared according to the manufacturer's protocol. At times of 3 and 8 days post-procedure, 5 mg kg^−1 of fluorescently-labeled pTBP, pSCP, or PEG in saline is injected intraperitoneal and imaged thirty minutes later using two-photon microscopy (Olympus Fluoview). Cathepsin K, a cysteine protease, is secreted by osteoclasts; therefore, TRAP is expected to be present in areas with cathepsin K activity. […] Bone drilling defects have been used previously to investigate osteoclast activity, with osteoclast accumulation at the defect evident from positive TRAP staining (Tanaka et al., 2010, J Biomed Mater Res, 93A(2): 469-474). […] Other live imaging modalities and sections of sacrificed mice are used to track biodistribution to other organs. Since the amino acid sequence of human, mouse, and rat TRAP is 89-94% homologous (Lamp and Drexler, 2000, Leukemia Lymphoma, 39(5-6): 477-484), it is probable that TBP-functionalized polymer therapeutic affinity to TRAP in mice can be translated into humans.

[8] = TRAP-functionalized CM5 chip, n = 2, Ave. ± StDev, read-out: KD

H-TPLSYLKGLVTVG [TBP]
Kd ([1]; binding-curve fit, read-out: KD for TRAP): ~200 µM and ~700 µM
Kd ([1]; read-out: affinity for TRAP measured with SPR): 795 µM
binding to bone resorption pits [2]: specific binding

10% SCP (VPVGTLSYLKLTG) [reference compound]
SPR binding response to TRAP (TRAP protein): negative responses

10% peptide-functionalized polymer (TPLSYLKGLVTVG)
Kd [1, 8]: 12.7 µM
cytocompatibility / cytotoxic effects [3]: worst cytocompatibility of all polymers tested

20% peptide-functionalized polymer (TPLSYLKGLVTVG)
Kd [1, 8]: 7.5 µM

O=C1Nc2cc(Br)ccc2/C1=C1/Nc2ccccc2/C1=N\O [BIO, 6-bromoindirubin-3′-oxime]
water solubility [4]: poor water solubility
ALP production ([5]; analyzed 7-days after treatment): increased
β-catenin levels ([5]; just after treatment): increased

scrambled control peptide, VPVGTLSYLKLTG (SEQ ID NO: 2) (VPVGTLSYLKLTG-OH; also: methacrylamide introduced on amine end for polymer incorporation) [SCP, reference compound]
affinity for TRAP measured with SPR [1]: no affinity
KD for TRAP ([1]; binding-curve fit): did not enable fitting of a binding curve or calculations of affinity
binding to bone resorption pits [2]: no binding

CN1CCN(S(=O)(=O)c2ccc(-c3cnc(N)c(C(=O)Nc4cccnc4)n3)cc2)CC1 [GSK3β inhibitor XXVII, 3-amino-6-{4-[(4-methyl-1-piperazinyl)sulfonyl]phenyl}-N-(3-pyridinyl)-2-pyrazinecarboxamide]
β-catenin agonism / activation (β-catenin in MSCs): potent agonist of β-catenin

20% TBP (TPLSYLKGLVTVG)
Kd (TRAP protein; initial rate analysis of SPR sensorgrams): 70 µM

10% TBP (TPLSYLKGLVTVG)
SPR binding response to TRAP (TRAP protein): positive response

20% SCP (VPVGTLSYLKLTG) [reference compound]
SPR binding response to TRAP (TRAP protein): negative responses

TBP-functionalized polymer therapeutics (TPLSYLKGLVTVG)
localization to resorption pits ([6]; resorbed bone wafers, fluorescently labeled): localize to resorption pits
affinity for untreated bone ([6]; untreated bone wafers): No affinity
colocalization with cathepsin K and osteoclast activity [7]: colocalize to areas with cathepsin K and osteoclast activity

Source: patent US10195284B2, “Compositions and methods for controlled localized delivery of bone forming therapeutic agents” (University of Rochester, priority 2013, dated 2019)
